{
  "source": "patent US7452908B2",
  "about": "“Amide derivatives” (Banyu Pharmaceutical Co., Ltd., priority 1999, dated 2008)",
  "key": {"[1]": {"molecular_target": "T1, human m1 muscarinic acetylcholine receptor expressed in CHO cells (Homo sapiens, UniProt P11229)", "T1 construct": "purchased Receptor Biology, Inc; host or cells: CHO cells", "T1 sequence (P11229 1-460)": "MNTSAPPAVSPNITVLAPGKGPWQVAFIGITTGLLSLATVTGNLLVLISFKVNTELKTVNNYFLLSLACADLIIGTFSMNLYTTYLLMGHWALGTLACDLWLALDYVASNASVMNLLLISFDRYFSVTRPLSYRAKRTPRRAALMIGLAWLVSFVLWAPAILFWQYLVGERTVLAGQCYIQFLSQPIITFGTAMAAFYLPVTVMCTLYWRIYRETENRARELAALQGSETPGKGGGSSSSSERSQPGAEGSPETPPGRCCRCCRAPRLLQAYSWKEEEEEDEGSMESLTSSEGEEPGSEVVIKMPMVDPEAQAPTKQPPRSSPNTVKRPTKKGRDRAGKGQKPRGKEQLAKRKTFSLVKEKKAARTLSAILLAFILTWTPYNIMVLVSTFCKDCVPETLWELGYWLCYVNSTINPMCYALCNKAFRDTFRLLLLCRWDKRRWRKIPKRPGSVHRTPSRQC", "assay": "Inhibition of [3H]-N-methylscopolamine binding to muscarinic m1 receptor", "details": "0.2 nM [3H]-N-methylscopolamine", "protocol": "(§1) These tests were performed according to a modification of the method of Hargreaves, et al. (Br. J. Pharmacol. 107: 494-501, 1992). Namely, muscarinic acetylcholine receptors of human m1, m2, m3, m4 and m5 expressed in CHO cells (Receptor Biology, Inc.) were incubated with 0.2 nM [^3H]-N-methylscopolamine (82Ci/mmol, New England Nuclear, Inc.) and a test compound to be tested in 0.5 ml of 50 mM Tris-HCl, 10 mM MgCl2, 1 mM EDTA solution (pH 7.4) for 120 minutes at room temperature (about 20-25° C.), followed by suction filtration over a glass filter (UniFilter plate-GF/C; Packard). Then the filter was washed four times with 1 ml of ice-cold Tris-HCl buffer and dried at 50° C. for an hour. After adding a scintillator (Microscinti 0; Packard), the radioactivity of [^3H]-N-methylscopolamine binding to the filter was counted with a microplate scintillation counter (TopCount™; Packard). Non-specific receptor binding of [^3H]-N-methylscopolamine was measured by adding 1 μM N-methylscopolamine."}, "[2]": {"molecular_target": "T2, airway M3 receptor in isolated rat trachea (Rattus norvegicus, UniProt P08483)", "T2 construct": "from tissue; host or cells: trachea of male SD rats", "T2 sequence (P08483 whole entry)": "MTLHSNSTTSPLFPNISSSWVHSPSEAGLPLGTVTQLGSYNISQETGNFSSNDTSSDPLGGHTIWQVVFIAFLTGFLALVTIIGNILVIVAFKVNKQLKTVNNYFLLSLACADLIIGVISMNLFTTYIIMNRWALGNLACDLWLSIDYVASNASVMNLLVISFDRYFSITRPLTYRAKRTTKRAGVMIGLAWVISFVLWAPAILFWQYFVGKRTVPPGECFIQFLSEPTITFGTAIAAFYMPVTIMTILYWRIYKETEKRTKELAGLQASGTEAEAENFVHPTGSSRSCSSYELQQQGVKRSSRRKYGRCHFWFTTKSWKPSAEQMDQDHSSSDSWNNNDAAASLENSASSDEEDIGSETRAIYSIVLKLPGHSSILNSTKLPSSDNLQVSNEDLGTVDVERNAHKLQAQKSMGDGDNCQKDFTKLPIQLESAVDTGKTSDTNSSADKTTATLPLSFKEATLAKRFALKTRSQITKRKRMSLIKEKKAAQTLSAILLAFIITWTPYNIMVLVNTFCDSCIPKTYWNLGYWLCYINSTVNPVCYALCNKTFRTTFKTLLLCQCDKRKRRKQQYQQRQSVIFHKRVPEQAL", "assay": "Antagonism to the airway M3 receptor in isolated rat trachea (carbachol-induced contraction)", "assay_type": "cell-based", "details": "for Kb: isolated rat trachea, shift of carbachol dose-response curve; for Selectivity M2/M3: ratio of KB right atrium M2 to KB trachea M3", "protocol": "The test was performed according to a conventional method. Male SD strain rats (weighing 300-500 g) were killed by exsanguination, and from each of them the trachea was isolated. Annular segments (2 mm wide) were cut out from the trachea and cut transversely at the anterior cartilage part to make open ring preparation. Each preparation was suspended in a Magnus tube filled with 5 ml of Krebs-Henseleit solution (gassed with 95% O2-5% CO2 and kept at 32° C.) with an initial tension of 1.0 g and a resting tension of 0.6 g. The tension of the preparation was recorded isometrically. After being equilibrated for an hour, the preparation was made to contract twice by treatment with 10^−4 M carbachol, and the second contraction induced by carbachol was used as the reference contraction. After washing the preparation with fresh solution to restore it to the base line, a test compound was administered thereto (or no treatment was given). Ten minutes later, carbachol (10^−8 to 10^−3 M) was cumulatively administered in three-fold increasing doses to obtain a dose-response curve. The dose-responsecurve was plotted by expressing responses as percentages based on the reference contraction of the preparation as 100%. The antagonistic potency (KB value) of the test compound was determined from the degree of shift of the dose-responsecurve attributable to the treatment with the test compound."}, "[3]": {"molecular_target": "T3, human m3 muscarinic acetylcholine receptor expressed in CHO cells (Homo sapiens, UniProt P20309)", "T3 construct": "purchased Receptor Biology, Inc; host or cells: CHO cells", "T3 sequence (P20309 whole entry)": "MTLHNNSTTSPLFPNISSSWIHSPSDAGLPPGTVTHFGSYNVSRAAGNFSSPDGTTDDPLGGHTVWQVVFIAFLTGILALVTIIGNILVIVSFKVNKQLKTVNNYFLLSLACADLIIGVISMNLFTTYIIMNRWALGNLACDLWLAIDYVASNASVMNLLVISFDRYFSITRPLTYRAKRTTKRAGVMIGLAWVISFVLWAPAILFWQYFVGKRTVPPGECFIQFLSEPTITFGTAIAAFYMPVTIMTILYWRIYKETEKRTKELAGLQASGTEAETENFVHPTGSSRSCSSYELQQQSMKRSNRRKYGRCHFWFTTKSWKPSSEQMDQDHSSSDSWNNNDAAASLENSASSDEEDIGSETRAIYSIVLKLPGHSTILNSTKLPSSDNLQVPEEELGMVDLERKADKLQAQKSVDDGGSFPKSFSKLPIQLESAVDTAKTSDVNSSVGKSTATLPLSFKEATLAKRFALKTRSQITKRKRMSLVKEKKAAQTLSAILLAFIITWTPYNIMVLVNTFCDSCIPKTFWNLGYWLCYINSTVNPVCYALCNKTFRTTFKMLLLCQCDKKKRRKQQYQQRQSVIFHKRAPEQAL", "assay": "Inhibition of [3H]-N-methylscopolamine binding to muscarinic m3 receptor", "details": "for Ki: human m3 in CHO cells, 0.2 nM [3H]-N-methylscopolamine; for Selectivity m1/m3: ratio of Ki m1 to Ki m3; for Selectivity m2/m3: ratio of Ki m2 to Ki m3; for Selectivity m4/m3: ratio of Ki m4 to Ki m3; for Selectivity m5/m3: ratio of Ki m5 to Ki m3", "protocol": "as §1"}, "[4]": {"molecular_target": "T4, human m5 muscarinic acetylcholine receptor expressed in CHO cells (Homo sapiens, UniProt P08912)", "T4 construct": "purchased Receptor Biology, Inc; host or cells: CHO cells", "T4 sequence (P08912 1-532)": "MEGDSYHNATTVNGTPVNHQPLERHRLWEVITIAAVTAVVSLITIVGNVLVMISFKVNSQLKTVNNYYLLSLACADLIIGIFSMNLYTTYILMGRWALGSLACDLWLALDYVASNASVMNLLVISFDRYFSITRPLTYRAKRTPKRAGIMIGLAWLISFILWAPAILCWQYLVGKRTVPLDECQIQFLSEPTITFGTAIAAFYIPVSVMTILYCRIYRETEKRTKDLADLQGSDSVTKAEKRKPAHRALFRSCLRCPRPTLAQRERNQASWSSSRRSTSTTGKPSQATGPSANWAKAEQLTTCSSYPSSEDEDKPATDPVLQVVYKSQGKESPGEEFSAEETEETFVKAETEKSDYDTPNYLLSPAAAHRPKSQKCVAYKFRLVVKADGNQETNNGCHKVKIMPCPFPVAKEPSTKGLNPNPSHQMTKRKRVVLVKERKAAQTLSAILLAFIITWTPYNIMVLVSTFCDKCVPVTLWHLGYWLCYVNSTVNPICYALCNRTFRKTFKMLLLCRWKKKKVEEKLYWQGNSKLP", "assay": "Inhibition of [3H]-N-methylscopolamine binding to muscarinic m5 receptor", "details": "0.2 nM [3H]-N-methylscopolamine", "protocol": "as §1"}},
  "data": [
    {"smiles": "O=C(CCNC(=O)CNC(=O)CC(c1ccccc1)(c1ccccc1)c1ccccc1)NC[C@H]1CCCN(CC2CCCCC2)C1", "note": "[Example 12, N-{2-(3-{((3R)-1-cyclohexylmethyl-3-piperidyl)methyl}amino-3-oxopropyl)amino-2-oxoethyl}-3,3,3-triphenyloropanamide]", "values": [
      {"measurement": "Ki", "setting": "[1]", "value": 140, "unit": "nM"},
      {"measurement": "Kb", "setting": "[2]", "value": 2.3, "unit": "nM"},
      {"measurement": "Selectivity M2/M3", "setting": "[2]", "value": 70, "unit": "times"},
      {"measurement": "Ki", "setting": "[3]", "value": 0.38, "unit": "nM"},
      {"measurement": "Selectivity m1/m3", "setting": "[3]", "value": 370, "unit": "times"},
      {"measurement": "Selectivity m2/m3", "setting": "[3]", "value": 89, "unit": "times"},
      {"measurement": "Selectivity m4/m3", "setting": "[3]", "value": 47, "unit": "times"},
      {"measurement": "Selectivity m5/m3", "setting": "[3]", "value": 84, "unit": "times"},
      {"measurement": "Ki", "setting": "[4]", "value": 32, "unit": "nM"}
    ]},
    {"smiles": "CC[N+]1(CC)CCC[C@H](CNC(=O)[C@H]2CCCN2C(=O)[C@@H]2C[C@@H](O)CN2C(=O)CC(c2ccccc2)(c2ccccc2)c2ccccc2)C1.[Cl-]", "note": "[Example 133, (3R)-1,1-diethyl-3-({({(2R)-1-({(2S,4R)-4-hydroxy-1-(3,3,3-triphenylpropanoyl)-2-pyrrolidinyl}carbonyl)-2-pyrrolidinyl}carbonyl)amino}methyl)piperidinium chloride]", "values": [
      {"measurement": "Ki", "setting": "[1]", "value": "> 2500", "unit": "nM"},
      {"measurement": "Kb", "setting": "[2]", "value": 0.71, "unit": "nM"},
      {"measurement": "Selectivity M2/M3", "setting": "[2]", "value": 58, "unit": "times"},
      {"measurement": "Ki", "setting": "[3]", "value": 3.2, "unit": "nM"},
      {"measurement": "Selectivity m1/m3", "setting": "[3]", "value": ">780", "unit": "times"},
      {"measurement": "Selectivity m2/m3", "setting": "[3]", "value": 250, "unit": "times"},
      {"measurement": "Selectivity m4/m3", "setting": "[3]", "value": 44, "unit": "times"},
      {"measurement": "Selectivity m5/m3", "setting": "[3]", "value": 500, "unit": "times"},
      {"measurement": "Ki", "setting": "[4]", "value": 1600, "unit": "nM"}
    ]}
  ]
}
